Legend:
SK-MEL-5 cells = test: SK-MEL-5 cell cytotoxicity assay (CellTiter-Glo); format: cell-based, human; conditions: FIG. 13
Procedure: (§1) SK-MEL-5 cells were treated with compounds for 24 hours, and then cell viability was measured using the CellTiter-Glo Assay (Promega), a luciferase-based reagent that measures cellular ATP levels. The compounds were tested at different concentrations to determine IC50 values. Compounds that were active in the primary assay and toxic below 30 μM at 24 hours were considered for probe development. Data were normalized against DMSO in Genedata Screener's Assay Analyzer.
(§2) SK-MEL-5 cells were maintained in DMEM (10% FBS, 1% Pen-Strep-Glutamine). Cells were fluid changed every 3 days and/or split upon reaching 100% confluency. For secondary assays, cells were thawed at 4 million cells per Falcon T175 flask. After 3 days, the cells were fluid changed, after 3 more days cells were passed to a Corning Triple flask (10-15 million cells) and plated after 3 days in the triple flask.
Day 1 • 1. Plate SK-MEL-5 cells at 3,000 per well in 30 uL media (phenol red free DMEM/10% Fetal Bovine Serum/Penicillin/Streptomycin/L-Glutamine) • 2. Use Corning white 384-well, square, opaque-bottomed plates (Corning Catalog No. 8867BC)
Day 2 • 3. Pin 100 nL compound/DMSO solution (Cybi Well) into assay plates. (For HTS, required sentinel pinning with the positive control, parthenolide (6 mM)) • 4. […]
(§3) Day 3 • 5. […] Read on the Perkin-Elmer EnVision plate reader with luminescence (LUM) settings for 0.1 sec per well. […]

MALME-3M cells = test: MALME-3M cell cytotoxicity assay (CellTiter-Glo); format: cell-based, human; conditions: FIG. 13
Procedure: as §1, with “MALME-3M” for “SK-MEL-5”
as §2, with “MALME-3M” for “SK-MEL-5”, “IMDM (20%” for “DMEM (10%”, “6” for “4”, “days,” for “days, the”, “(15-18” for “(10-15”
Day 1 • 1. Plate MALME-3M cells at 3,000 per well in 30 uL media (phenol red free IMDM/10% Fetal Bovine Serum/Penicillin/Streptomycin/L-Glutamine) • 2. Use Corning white 384-well, square, opaque-bottomed plates (Corning Catalog No. 8867BC)
Day 2 • 3. Pin 100 nL compound/DMSO solution (Cybi Well) into assay plates, including the positive control. • 4. Incubate 24 hours at 37° C. in Liconic incubator.
as §3

A375 cells = test: A-375 cell cytotoxicity assay (CellTiter-Glo); format: cell-based, human; conditions: FIG. 13
Procedure: as §1, with “A375 cells were” for “SK-MEL-5 cells were”, “assay and were not toxic below” for “assay and toxic below”
as §2, with “A-375” for “SK-MEL-5”, “90%” for “100%”, “2” for “4”, “days,” for “days, the cells were fluid changed, after 3 more days”, “(6-8” for “(10-15”
Day 1 • 1. Plate A-375 cells at 3,000 per well in 30 uL media (phenol red free DMEM/10% Fetal Bovine Serum/Penicillin/Streptomycin/L-Glutamine) • 2. Use Corning white 384-well, square, opaque-bottomed plates (Corning Catalog No. 8867BC)
Day 2 • 3. Pin 100 nL compound/DMSO solution (Cybi Well) into assay plates. (For HTS, required sentinel pinning with the positive control, parthenolide (6 mM)) • 4. Incubate 24 hours at 37° C. in Liconic incubator.
as §3

CDK2 = test: qPCR assay for CDK2 expression in SK-MEL-5 cells; format: cell-based, human; conditions: qPCR
Procedure: SK-MEL-5 cells were treated with compounds for 24 hours. Next, cells were lysed with DNase I (Ambion, from Cell to CT Lysis Mix). Lysed cells were delivered to a RT-PCR plate (Ambion, Cells to CT RT Mix) and the plates were then processed for reverse transcription to create cDNA. qPCR was performed by transferring cDNA from the RT-PCR plate to a qPCR plate containing PCR master mix (Roche, Probes Master), FAM Taqman probe/primer set for the target gene (human MITF, Applied Biosystem, 4331182 Hs01117294_m1), VIC Taqman probe/primer set for a house keeping gene (human GAPDH, Applied Biosystems C10228) and water. qPCR plates were cycled using a real-time PCR instrument (Roche, Light Cycler). Using the instrument software, a cycle call was generated when each well enters log phase amplification (Ct). The delta Ct value was determined by subtracting the Ct value of the control gene (GAPDH) from the Ct value of the target gene (MITF) in each well. The delta delta Ct value of each compound treatment was determined by averaging the delta Ct values of the mock well on each plate and subtracting that average from the delta Ct value of each compound well. […]
• 10. […] The RT assay plates are incubated at 37° C. for 1 hour and the reverse transcriptase is inactivated by incubating the plates for 1 minute at 95° C. • 13. cDNA is stored at −80° C. until ready for qPCR analysis […]

[1] = test system: human melanoma cell lines; test: Cell viability of human melanoma cell lines (CellTiter-Glo, 48-72 hours); format: cell-based
Procedure: (§4) Experiments described in this example were performed using methods as described in Haq et al. (2013). Oncogenic BRAF regulates oxidative metabolism via PGC1α and MITF. Cancer Cell. 2013 Mar. 18; 23(3):302-15.
(§5) Indicated cell line was treated with varying concentrations of ML329 for 48-72 hours. Viability was measured using the CellTiter-Glo reagent (Promega).

non-melanoma cells = test: Non-melanoma cell viability (CellTiter-Glo, 48-72 hours); format: cell-based
Procedure: as §4, §5

[2] = test system: MITF and MITF target genes; test: qPCR of MITF and MITF target genes in human melanoma cell lines and primary melanocytes; format: cell-based; conditions: 24 h, multiple cell lines
Procedure: as §4
Effect of ML329 (24 h at indicated concentration) on MITF mRNA and target gene mRNA expression in melanoma cell lines. mRNA was quantified by qPCR.

MITF protein = MITF protein by Western immunoblotting in SKMEL-5 cells; format: cell-based, human
Procedure: as §4
MITF protein was detected using Western immunoblotting. In parallel, SK-MEL-5 cells treated with ML329 (above) were lysed and MITF mRNA was quantified by qPCR (FIG. 12b).

Row | SMILES | Cell viability, SK-MEL-5 (MITF-dependent), result in words (SK-MEL-5 cells) | Cell viability, MALME-3M (MITF-dependent), result in words (MALME-3M cells) | Cell viability, A-375 (MITF-independent), result in words (A375 cells) | CDK2 expression, result in words (CDK2) | Sensitivity of melanoma cell lines (cell viability) ([1]; A375, SKMEL2, IPC298 and SK30) | Cytotoxicity in a large number of melanoma cells ([1]; CellTiter-Glo, incl. vemurafenib-resistant lines) | Sensitivity of melanoma cell lines (cell viability) ([1]; SKMEL5, IST MEL, MALME-3M and 501 MEL) | Sensitivity of melanoma cell lines (cell viability) ([1]; UACC257, C32, COLO800 and MZ2MEL) | Cytotoxicity in non-melanoma cells or melanoma cells lacking MITF (non-melanoma cells) | Effect on MITF mRNA and target gene mRNA expression [2] | Effect on MITF protein (MITF protein)
1 | Cc1nc2ccccc2n1/N=C/c1ccc([N+](=O)[O-])s1 | specific activity against the MITF-dependent cells | specific activity against the MITF-dependent cells | no impairment of viability | reduced the expression | – | – | – | – | – | – | –
2 | NS(=O)(=O)c1ccc(NC2=CC(=O)c3ccccc3C2=O)cc1 [ML329, 4-((1,4-dioxo-1,4-dihydronaphthalen-2-yl)amino)benzenesulfonamide] | – | – | – | – | less sensitive | variably cytotoxic | very sensitive | sensitive | not cytotoxic | suppresses MITF and its transcriptional activity | suppresses MITF protein

Source: patent US9745261B2, “Inhibitors of the MITF molecular pathway” (THE GENERAL HOSPITAL CORPORATION, priority 2013, dated 2017)
